Experimental data published in patent publication US10590077B2, “TRPV4 antagonists” (GlaxoSmithKline Intellectual Property (No.2) Limited, priority 2016, dated 2020).
pIC50: −log10 of the molar value. Where two headings read alike, the source gives them in different places.

Biological target: human TRPV4 (Homo sapiens (Human), UniProt Q9HBA0)
Test: FLIPR assay for hTRPV4 expressed in BHK cells
Format: cell-based
Method: FLIPR Assay for hTRPV4 Expressed in BHK Cells:
TRPV4 channel activation results in an influx of divalent and monovalent cations including calcium. The resulting changes in intracellular calcium were monitored using a calcium specific fluorescent dye Fluo-4 (MDS Analytical Technologies). BHK/AC9 cells transduced with BacMam virus expressing the human TRPV4 gene at a MOI of 78 were plated in a 384 well poly-D lysine coated plate (15,000 cells/well in 50 μL culture medium containing DMEM/F12 with 15 mM HEPES, 10% FBS, 1% Penicillin-Streptomycin and 1% L-glutamine). Cells were incubated for 24 hours at 37° C. and 5% CO2. Culture medium was then aspirated using a Tecan plate-washer and replaced with 20 μL/well of dye loading buffer: HBSS, 500 μM Brilliant Black (MDS Analytical Technologies), and 2 μM Fluo-4 AM. Dye loaded plates were then incubated in the dark at room temperature for 1˜1.5 hours.

[1] = average in at least one set of experimental runs, inhibition of Agonist Compound-induced calcium signal, read-out: average IC50
[2] = inhibition of Agonist Compound-induced calcium signal (agonist at EC80), BHK/AC9 cells expressing human TRPV4, read-out: IC50

Chain of human TRPV4 (Q9HBA0 whole entry): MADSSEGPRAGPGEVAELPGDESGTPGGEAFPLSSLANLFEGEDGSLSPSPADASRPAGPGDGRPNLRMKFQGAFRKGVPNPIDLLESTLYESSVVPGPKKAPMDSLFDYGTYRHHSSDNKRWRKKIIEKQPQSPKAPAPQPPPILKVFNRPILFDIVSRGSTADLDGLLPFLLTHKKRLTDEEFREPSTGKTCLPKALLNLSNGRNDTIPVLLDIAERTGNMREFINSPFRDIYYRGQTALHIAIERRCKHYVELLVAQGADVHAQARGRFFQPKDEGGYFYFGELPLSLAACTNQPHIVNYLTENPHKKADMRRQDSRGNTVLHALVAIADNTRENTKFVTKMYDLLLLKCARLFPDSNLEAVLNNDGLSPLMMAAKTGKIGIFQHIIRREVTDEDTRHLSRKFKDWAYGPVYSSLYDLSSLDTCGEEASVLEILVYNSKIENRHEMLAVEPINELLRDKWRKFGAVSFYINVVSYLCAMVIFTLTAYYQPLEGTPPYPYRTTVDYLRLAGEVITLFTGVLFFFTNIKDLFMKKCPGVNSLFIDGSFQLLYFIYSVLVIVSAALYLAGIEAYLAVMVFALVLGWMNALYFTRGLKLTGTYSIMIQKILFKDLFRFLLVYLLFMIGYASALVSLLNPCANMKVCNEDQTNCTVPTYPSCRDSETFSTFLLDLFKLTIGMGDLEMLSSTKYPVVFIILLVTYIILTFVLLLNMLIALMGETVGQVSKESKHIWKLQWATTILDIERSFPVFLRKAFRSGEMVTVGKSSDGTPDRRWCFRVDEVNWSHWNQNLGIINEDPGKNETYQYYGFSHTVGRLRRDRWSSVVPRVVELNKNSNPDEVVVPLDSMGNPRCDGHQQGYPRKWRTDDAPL

| SMILES | pIC50 [1] | pIC50 [2] |
| --- | --- | --- |
| N#Cc1ccc(C[C@H]2CN(S(=O)(=O)c3ccc(Cl)cc3Cl)C[C@@]2(O)CO)cc1F [Example 1, 4-(((3S,4R)-1-((2,4-dichlorophenyl)sulfonyl)-4-hydroxy-4-(hydroxymethyl)pyrrolidin-3-yl)methyl)-2-fluorobenzonitrile] | 8.10 | 8.00 to 10.00 |
| N#Cc1ccc(C[C@H]2CN(S(=O)(=O)c3ccc(C(F)(F)F)cc3Cl)C[C@@]2(O)CO)cc1 [Example 2, 4-(((3S,4R)-1-((2-chloro-4-(trifluoromethyl)phenyl)sulfonyl)-4-hydroxy-4-(hydroxymethyl)pyrrolidin-3-yl)methyl)benzonitrile] | – | 7.00 to 8.00 |
| N#Cc1ccc(C[C@H]2CN(S(=O)(=O)c3ccc(Cl)cn3)C[C@@]2(O)CO)c(OCC(F)(F)F)c1 [Example 3, 4-(((3S,4R)-1-((5-chloropyridin-2-yl)sulfonyl)-4-hydroxy-4-(hydroxymethyl)pyrrolidin-3-yl)methyl)-3-(2,2,2-trifluoroethoxy)benzonitrile] | – | 7.00 to 8.00 |
| N#Cc1ccc(C[C@H]2CN(S(=O)(=O)c3ccc(Cl)cc3Cl)C[C@]2(O)CO)cc1F [Example 4, 4-(((3S,4S)-1-((2,4-dichlorophenyl)sulfonyl)-4-hydroxy-4-(hydroxymethyl)pyrrolidin-3-yl)methyl)-2-fluorobenzonitrile] | – | 7.00 to 8.00 |
| N#Cc1ccc(C[C@H]2CN(S(=O)(=O)c3ccc(C(F)(F)F)cc3C#N)C[C@@]2(O)CO)cc1F [Example 5, 4-(((3S,4R)-1-((2-cyano-4-(trifluoromethyl)phenyl)sulfonyl)-4-hydroxy-4-(hydroxymethyl)pyrrolidin-3-yl)methyl)-2-fluorobenzonitrile] | – | 8.00 to 10.00 |
| N#Cc1ccc(S(=O)(=O)N2C[C@H](Cc3ccc(C#N)c(F)c3)[C@](O)(CO)C2)c(Cl)c1 [Example 6, 4-(((3S,4R)-1-((2-chloro-4-cyanophenyl)sulfonyl)-4-hydroxy-4-(hydroxymethyl)pyrrolidin-3-yl)methyl)-2-fluorobenzonitrile] | – | 8.00 to 10.00 |
| N#Cc1ccc(C[C@H]2CN(S(=O)(=O)c3ccc(Cl)cn3)C[C@@]2(O)CN)cc1F [Example 7, 4-(((3S,4S)-4-(aminomethyl)-1-((5-chloropyridin-2-yl)sulfonyl)-4-hydroxypyrrolidin-3-yl)methyl)-2-fluorobenzonitrile] | 8.00 | 8.00 to 10.00 |
